According to patent US20250207131A1, “MODIFIED RNA AGENTS WITH REDUCED OFF-TARGET EFFECT” (Alnylam Pharmaceuticals, Inc., priority 2018, published 2025):
pIC50: −log10 of the molar value.

Assays:
[1] = test system: luciferase reporter plasmids (psiCHECK2, Renilla luciferase fused to target sequence); assay: Off-target Dual-Glo luciferase reporter assay in COS-7 cells; type: cell-based; conditions: luciferase reporter plasmids co-transfected with siRNAs into COS-7 cells
Description: Dual-Glo® Luciferase assay: Cos7 cells (ATCC, Manassas, VA) were grown to near confluence at 37° C. in an atmosphere of 5% CO2 in DMEM (ATCC) supplemented with 10% FBS, before being released from the plate by trypsinization. siRNA and psiCHCECK2 plasmid transfection was carried out by adding 5 μL of siRNA duplexes and 5 μL of psiCHECK2 plasmid per well along with 5 μL of Opti-MEM plus 0.1 μL of Lipofectamine 2000 per well (Invitrogen, Carlsbad CA. cat #13778-150) and then incubated at room temperature for 15 minutes. The mixture was then added to the cells which were re-suspended in 35 ul of fresh complete media. The transfected cells were incubated at 37° C. in an atmosphere of 5% CO2.
48 hours after the siRNAs and psiCHECK2 plasmid were transfected; Firefly (transfection control) and Renilla (fused to target sequence) luciferase were measured. First, media was removed from cells. Then Firefly luciferase activity was measured by adding 20 μL of Dual-Glo® Luciferase Reagent equal to the culture medium volume to each well and mix. The mixture was incubated at room temperature for 30 minutes before luminescence (500 nm) was measured on a Spectramax (Molecular Devices) to detect the Firefly luciferase signal. Renilla luciferase activity was measured by adding 20 μL of room temperature of Dual-Glo® Stop & Glo® Reagent was added to each well and the plates were incubated for 10-15 minutes before luminescence was again measured to determine the Renilla luciferase signal. The Dual-Glo® Stop & Glo® Reagent, quenches the firefly luciferase signal and sustained luminescence for the Renilla luciferase reaction. siRNA activity was determined by normalizing the Renilla signal to the Firefly (control) signal within each well. The magnitude of siRNA activity was then assessed relative to cells that were transfected with the same vector but were not treated with siRNA or were treated with a non-targeting siRNA. All transfections were done at n=2 or greater.

TTR = assay: In vitro on-target activity, primary mouse hepatocytes, transfection, RT-qPCR (TTR siRNAs); type: cell-based
Description: Cell culture and transfections: Primary Mouse Hepatocytes (Thermo Fisher Scientific/Gibco) were transfected by adding 4.9 μL of Opti-MEM plus 0.1 μL of Lipofectamine RNAiMax per well (Invitrogen, cat #13778-150) to 5 μL of siRNA duplexes per well into a 384-well plate and incubated at room temperature for 15 minutes. 40 μL of Dulbecco's Modified Eagle Medium (Hep3b) or William's Medium (PMH) containing ˜5 ×10^3 cells were then added to the siRNA mixture. Cells were incubated for 24 hours at 37° C. and then processed for RNA purification. Experiments were performed at 10 nM and 0.1 nM doses of siRNA.
Total RNA isolation using DYNABEADS mRNA Isolation Kit: RNA was isolated using an automated protocol on a BioTek-EL406 platform using DYNABEADs (Invitrogen, cat #61012). Briefly, 70 μL of Lysis/Binding Buffer and 10 μL of lysis buffer containing 3 μL of magnetic beads were added to each well. Plates were incubated on an electromagnetic shaker for 10 minutes at room temperature and then magnetic beads were captured and the supernatant was removed. Bead-bound RNA was then washed 2 times with 150 μL Wash Buffer A and once with Wash Buffer B. Beads were then washed with 150 μL Elution Buffer, re-captured and supernatant removed.
cDNA synthesis using ABI High capacity cDNA reverse transcription kit (Applied Biosystems, cat #4368813): 12 μL of a master mix containing 1.2 μL 10× Buffer, 0.48 μL 25× dNTPs, 1.2 μL 10× Random primers, 0.6 μL Reverse Transcriptase, 0.6 μL RNase inhibitor and 7.92 μL of H2O per reaction was added to RNA isolated above. Plates were sealed, mixed, and incubated on an electromagnetic shaker for 10 minutes at room temperature, followed by 2 h 37° C.
Real time PCR: 2 μL of cDNA were added to a master mix containing 2 μL water, 0.5 μL of either an appropriate GAPDH TaqMan VIC Probe or the target probe and 5 μL Lightcycler 480 probe master mix (Roche, cat #04887301001) per well in a 384 well plate (Roche, cat #04887301001). Real time PCR was done in a LightCycler480 Real Time PCR system (Roche). Each duplex was tested in quadruplicate and data were normalized to cells transfected with a non-targeting control siRNA. To calculate relative fold change, real time data were analyzed using the ΔΔCt method and normalized to assays performed with cells transfected with a non-targeting control siRNA.
RT qPCR for Ttr mRNA quantification:_Primary mouse hepatocytes (PMH) were cultured in Williams E Medium with 10% fetal bovine serum. Transfection of cells using RNAiMAX reagent was done as per the manufacturer's recommended protocol. Thus, cells were thawed immediately prior to transfection and then plated onto 384-well plates with a seed density of ˜5000 cells/well. Pre-incubated lipid/siRNA complex (0.1 μL RNAiMax, siRNA, in 5 μL Opti-MEM for 15 min) was added to a 384-well collagen-coated plate (BioCoat; Corning) and cells were incubated for 20 h at 37° C. in an atmosphere of 5% CO2. Eight 6-fold serial dilutions ranging from 10 to 0.036 nM were used to perform dose response experiments. Media was removed before washing and lysing the cells. Using Dynabeads mRNA isolation kit according to manufacturer's protocol, RNA was extracted and subsequently reverse-transcribed with the ABI high capacity cDNA reverse transcription kit. Quantification was done by real-time PCR, whereby the cDNA (2 μL) was added to a master mix that contained 0.5 μL mouse Gapdh TaqMan Probe, 0.5 μL Ttr TaqMan probes, and 5 μL Lightcycler 480 probe master mix per well in a 384-well 50 plate. Real-time PCR was accomplished in an ABI 7900HT RT-PCR system using the ΔΔCt (RQ) assay. Each duplex and concentration was tested in four biological replicates. To calculate relative fold change, real time data were analyzed using the ΔΔCt method and normalized to assays performed with cells transfected with 10 nM nonspecific siRNA. IC50 values were calculated using a 4-parameter fit model using XLFit.

[2] = Rat toxicity study, clinical pathology parameters; conditions: rats, single subcutaneous dose 30 mg/kg, cohort average
[3] = UV thermal melting temperatures of mUNA 12-mer duplexes; type: physicochemical; conditions: for ΔTm (° C.) / Tm (° C.)b: 8×PBS; for ΔTm (° C.): relative to unmodified duplex; for Tm (° C.)a / Tm (° C.)b: mUNA 12-mer duplexes, 2.0 μM each strand, pH 7.4; for Tm (° C.)a: 1x PBS
From the text: Values were reported as the maximum of the first derivative and are the average of at least two experiments.

Substance: Parent (AD-125773): TTR siRNA; passenger u•u•cuugCuCUAuaaaccgugu(L), guide a•C•acgguuuauagAgCaagaa•c•a (sense CUUGCUCUAUAAACCGUGU; antisense ACGGUUUAUAGAGCAAGAA; phosphorothioate ends, overhangs, chemistry not fully specified)
- pIC50 ([1]; TTR-4, modification at antisense position 7): 8.92
- pIC50 (TTR; TTR-4, modification at antisense position 7, primary mouse hepatocytes): 9.87

Substance: Parent (AD-64958): TTR siRNA; passenger a•a•caguGuUCUugcucuauaa(L), guide u•U•auaGagcaagaAcAcuguu•u•u (sense CAGUGUUCUUGCUCUAUAA; antisense AUAGAGCAAGAACACUGUU; phosphorothioate ends, overhangs, chemistry not fully specified)
- pIC50 ([1]; TTR (Seq 2)): 10.30
- A/G Avg. [2]: 1.3
- ALB Avg. [2]: 2.9 g/dL
- ALP Avg. [2]: 427 U/L
- ALT Avg. [2]: 108 U/L
- AST Avg. [2]: 332 U/L
- BILI Avg. [2]: 0.48 mg/dL
- CA Avg. [2]: 9.9 mg/dL
- CHOL Avg. [2]: 43 mg/dL
- CREAT Avg. [2]: 0.21 mg/dL
- GLDH Avg. [2]: 140.8 U/L
- GLOB Avg. [2]: 2.27 g/dL
- GLUC Avg. [2]: 124 mg/dL
- K Avg. [2]: 4.9 mmol/L
- NA Avg. [2]: 140 mmol/L
- PHOS Avg. [2]: 9.0 mg/dL
- PROT Avg. [2]: 5 g/dL
- TRIG Avg. [2]: 51 mg/dL
- UREAN Avg. [2]: 18.6 mg/dL
- On-Target mRNA remaining (%) 0.1 nM siRNA (TTR; TTR (Seq 2), primary mouse hepatocytes, 0.1 nM siRNA): 25.5%
- On-Target mRNA remaining (%) 10 nM siRNA (TTR; TTR (Seq 2), primary mouse hepatocytes, 10 nM siRNA): 2.3%

Substance: AD-511236.1 (sense TACAGUCTATGT; antisense ACATAGACTGTA; sense: chemistry not given here; antisense: DNA, backbone not given here; sense strand has one mUNA-type uridine (Uun))
- ΔTm (° C.) [3]: −25.5 °C
- Tm (° C.)a [3]: <30 °C
- Tm (° C.)b [3]: 23.6 °C

Substance: AD-511256.1 (sense TACAGUCTATGT; antisense ACAUAGACUGUA; sense: chemistry not given here; antisense: RNA, backbone not given here; sense strand has one mUNA-type uridine (Uun))
- ΔTm (° C.) [3]: −20.6 °C
- Tm (° C.)a [3]: <30 °C
- Tm (° C.)b [3]: 28.6 °C
